Common to all, as to assay type: in vivo
A short description of one data set: in vivo. The conditions noted are these: Balanus amphitrite (barnacle) cyprid larvae, in vivo, B. amphitrite cyprids, 48 h, concentration where 50% of larvae dead. On the procedure:
(§1) They were kept in sea water at room temperature in lab under light illumination to induce the release of nauplii larvae. These newly released nauplii were reared to the cyprid stage on a diet of Chaetoceros gracilis Schutt at 28° C. for about 3 days until they developed into cyprids, which were ready to settle. The cyprids were collected using a 120 μm mesh sieve. Each sample of the exacts was dissolved in a small amount of DMSO and then transferred into filtered seawater to make up the test solution with a known concentration. About fifteen (15±3) cyprids per well were incubated in the dark for 48 h in a 24-well plate filled with 1 ml testing solutions per well. The numbers of the settled and swimming larvae were counted under a dissecting microscope. Three replicates were run for each sample. […] The experiment was performed in quadruplicate.
as §1, with “Each compound” for “Each”, “sample” for “sample of the exacts”

In the next data set the test system is B. amphitrite cyprids. Kind of data set: whole plant or invertebrate. The conditions noted are these: for EC50: Amphibalanus amphitrite, 48 h, read-out: EC50 (larval settlement); for LC50/EC50: B. amphitrite, ratio >10 regarded as non-toxic. On the procedure:
as §1
as §1, with “Each compound” for “Each”, “sample” for “sample of the exacts”

Data set [1] in a line: inhibition of larvae settlement of H. elegans. The conditions noted are these: Hydroides elegans (polychaete tubeworm) larvae, in vivo, H. elegans larvae, 48 h. The method, then:
(§2) The four amide compounds were tested for their abilities to inhibit larvae settlement of the H. elegans, using an experimental model of inhibition of larvae settlement H. elegans (Zhang Y., Xiao K., Qian P. Y., et al. 2D gel-based multiplexed proteomic analysis during larval development and metamorphosis of the biofouling polychaete tubeworm Hydroides elegans. Journal of proteome research. 2010, 9(9), 4851-4860). Adults of H. elegans were collected from Yung Shue O, Hong Kong (22° 25′N, 114° 16′E). The H. elegans larvae were reared according to Qian and Pechenik (Bryan P. J., Qian P. Y., Kreider J. L.; Chia F. S. Induction of larval settlement and metamorphosis by pharmacological and conspecific associated compounds in the serpulid polychaete Hydroides elegans. Marine ecology progress series. 1997, 146: 81-90; Qiu, J. W.; Qian, P. Y. Combined effects of salinity, temperature and food on early development of the polychaete Hydroides elegans. Marine ecology progress series. 1997, 152: 79-88). Briefly, they were reared for 4 days until they reach the settlement-competent stage on a diet of chrysophyte Isochrysis galbana under an aerated condition and a 15 h light/9 h dark photoperied at 25° C. Because the attachment of H. elegans larvae requires to be induced by marine biofilm (Carpizo-Ituarte and Hadfield 1998), 24-well plates were suspended in laboratory tanks supplied with running seawater for 6 days until each well of every plate had accumulated sufficient biofilm. About fifteen (15±3) competent larvae were added to each biofilmed well of a plate containing 1.0 mL test solution containing samples at known concentrations. The 24-well plates were incubated at 28° C. for 48 h under a 15 h light/9 h dark photoperied. The percentage of larvae settlement and larvae mortality was determined by counting the settled, live individuals under a dissecting microscope. Three replicates were run for each sample. The EC50 was calculated as the concentration where 50% of the larval population was inhibited to settle as compared to the control, while LC50 was calculated as the concentration where 50% of the larval population was dead. The experiment was performed in quadruplicate. The experiment results of the inhibitory effect of the four Compounds 1-4 on larvae settlement of H. elegans were shown in FIGS. 3, 6, 9, and 12, respectively.

In the next data set the test system is H. elegans larvae. As to the kind of experiment: inhibition of larvae settlement of H. elegans. The conditions noted are these: for LC50/EC50: H. elegans, ratio >10 regarded as non-toxic; for EC50: Hydroides elegans, read-out: EC50 (larval settlement). The method, then: as §2
The nature of data set [2]: inhibition of larvae settlement of B. neritina. The conditions noted are these: Bugula neritina (bryozoan) larvae, in vivo, B. neritina larvae, 24 h. On the procedure:
(§3) Adult B. neritina colonies were placed in a 12 L tank filled with 8 L filtered seawater under a bright artificial light for 1 h to induce the release of their photo-tactic larvae that were able to shortly attach and metamorphose. The actively swimming larvae were collected and added to the test solutions contain different concentrations of samples in 24-well plates at about fifteen (15±3) larvae per well. They were then incubated in the dark at room temperature for 24 h before counting the number of attached and unattached larvae under a dissecting microscope. […] The experiment was performed in quadruplicate.

The test system of the next data set is B. neritina larvae. Kind of data set: inhibition of larvae settlement of B. neritina. The conditions noted are these: for LC50/EC50: B. neritina, ratio >10 regarded as non-toxic; for EC50: Bugula neritina, read-out: EC50 (larval settlement). On the procedure:
as §3

Where [3] appears, read: other: immersion in test solution.
[4] abbreviates: B. amphitrite cyprids, concentration where 50% of larvae inhibited to settle vs control.
The mark [5] stands for this setting: 48 h, H. elegans larvae, biofilmed wells, 48 h.

≈ marks a conversion by molar mass, not a printed value. Like-named read-outs stand apart in the source and are kept apart here. Where only a bound is given, the exact number is not on record here.

With `O=C(CCCCCC/C=C/c1ccc2c(c1)OCO2)N1CCCCC1` [Compound 1, 1-[1-oxo-9-(3′,4′-methylenedioxyphenyl)-8E-nonenyl]-piperine], the LC50 (commonly the concentration lethal to half of the exposed cells or organisms) at 48 h in the data set “in vivo” (setting [3]) was greater than 100 µg/mL; in data set [1] (setting [3]), greater than 50 µg/mL. Also, the EC50 (in general, the concentration giving half of the maximal effect) in the data set on B. amphitrite cyprids (setting [4]) worked out at 1.1 ± 0.3 µg/mL (≈ 3.2 µM); in the data set with H. elegans larvae (setting [5]) it was 1 ± 0.4 µg/mL (≈ 2.91 µM). In addition, the LC50/EC50 in the data set on B. amphitrite cyprids is on record as greater than 86.9; with H. elegans larvae, greater than 49.5; in the data set with B. neritina larvae, greater than 14.7. Moreover, the LC50 at 24 h in data set [2] (setting [3]) was greater than 10 µg/mL. In addition, the “EC50 (larval settlement)” value in the data set on B. neritina larvae (B. neritina larvae, 24 h) is 0.7 ± 0.2 µg/mL (≈ 2.04 µM).

On to `O=C(/C=C/C=C/c1ccc2c(c1)OCO2)N1CCCCC1` [Compound 2, 1-[1-oxo-5-(3′,4′-methylenedioxyphenyl)-2,4-pentadienoyl]-piperidine], for which the values for the LC50 at 48 h (in “in vivo”; in data set [1]) were greater than 100 µg/mL and greater than 50 µg/mL, respectively. In addition, the EC50 in the data set on B. amphitrite cyprids (setting [4]) was determined as 1.4 ± 0.6 µg/mL (≈ 4.91 µM); in the data set with H. elegans larvae (setting [5]), 1.3 ± 0.8 µg/mL (≈ 4.56 µM); in the data set with B. neritina larvae (24 h, B. neritina larvae, 24 h), 1.6 ± 0.7 µg/mL (≈ 5.61 µM). In addition, the results for the LC50/EC50 in the data set on B. amphitrite cyprids, with H. elegans larvae and in the data set on B. neritina larvae were greater than 71.4, greater than 38.5 and greater than 30.3, respectively. Besides, the LC50 at 24 h in data set [2] is greater than 50 µg/mL.

As to `O=C(/C=C/C=C/CCc1ccc2c(c1)OCO2)N1CCCCC1` [Compound 3, 1-[1-oxo-7-(3′,4′-methylenedioxyphenyl)-2E,4E-heptadienyl]-piperine], the LC50 at 48 h (in the data set “in vivo” (setting [3]); in data set [1] (setting [3])) was greater than 100 µg/mL each time. For the same compound, the EC50 turned out to be 4.2 ± 1.3 µg/mL (≈ 13.4 µM) in the data set on B. amphitrite cyprids (setting [4]); 7.3 ± 1.6 µg/mL (≈ 23.3 µM) in the data set with H. elegans larvae (setting [5]); 8.5 ± 2.1 µg/mL (≈ 27.1 µM) in the data set with B. neritina larvae (24 h, B. neritina larvae, 24 h). For the same compound, the LC50/EC50 with B. amphitrite cyprids is listed as greater than 24.0; with H. elegans larvae, greater than 13.7; with B. neritina larvae, greater than 11.7. This compound showed an LC50 at 24 h in data set [2] (setting [3]) greater than 100 µg/mL.

With `CC(C)CNC(=O)/C=C/C=C/CCCCCC/C=C/c1ccc2c(c1)OCO2` [Compound 4, (2E,4E,12E)-N-isobutyl-13-(3′,4′-methylenedioxyphenyl)-tridecatrienamide], the values for the LC50 at 48 h (in “in vivo”; in data set [1]) were greater than 200 µg/mL and greater than 100 µg/mL, respectively. The EC50 in the data set with B. amphitrite cyprids was 16.6 ± 2.9 µg/mL (≈ 43.3 µM); in the data set on H. elegans larvae (48 h), greater than 20 µg/mL; with B. neritina larvae (24 h), 5.7 ± 1.5 µg/mL (≈ 14.9 µM). The LC50/EC50 is on record as greater than 12.1 with B. amphitrite cyprids and greater than 17.6 with B. neritina larvae. In addition, the “EC50 (larval settlement)” value in the data set on H. elegans larvae (H. elegans larvae, biofilmed wells, 48 h) was greater than 20.0 µg/mL. The LC50 at 24 h in data set [2] was greater than 100 µg/mL.

The values above are taken from patent US9131691B2, “Use of amide compounds for preventing marine biofouling” (The Hong Kong University of Science and Technology, priority 2011, dated 2015).
